Data set [1] concerns the target T1, JAK3/JAK1 (Homo sapiens, UniProt P23458+P52333). Description: Inhibition of JAK1/3-mediated STAT5 phosphorylation in human whole blood incubated for 30 mins followed by IL-2 addition measured after 15 mins by flow cytometry. Format: tissue-based.
Data set [2] concerns the target T2, Mitogen-activated protein kinase kinase kinase 2 (Homo sapiens, UniProt Q9Y2U5).
T2 sequence (Q9Y2U5 whole entry): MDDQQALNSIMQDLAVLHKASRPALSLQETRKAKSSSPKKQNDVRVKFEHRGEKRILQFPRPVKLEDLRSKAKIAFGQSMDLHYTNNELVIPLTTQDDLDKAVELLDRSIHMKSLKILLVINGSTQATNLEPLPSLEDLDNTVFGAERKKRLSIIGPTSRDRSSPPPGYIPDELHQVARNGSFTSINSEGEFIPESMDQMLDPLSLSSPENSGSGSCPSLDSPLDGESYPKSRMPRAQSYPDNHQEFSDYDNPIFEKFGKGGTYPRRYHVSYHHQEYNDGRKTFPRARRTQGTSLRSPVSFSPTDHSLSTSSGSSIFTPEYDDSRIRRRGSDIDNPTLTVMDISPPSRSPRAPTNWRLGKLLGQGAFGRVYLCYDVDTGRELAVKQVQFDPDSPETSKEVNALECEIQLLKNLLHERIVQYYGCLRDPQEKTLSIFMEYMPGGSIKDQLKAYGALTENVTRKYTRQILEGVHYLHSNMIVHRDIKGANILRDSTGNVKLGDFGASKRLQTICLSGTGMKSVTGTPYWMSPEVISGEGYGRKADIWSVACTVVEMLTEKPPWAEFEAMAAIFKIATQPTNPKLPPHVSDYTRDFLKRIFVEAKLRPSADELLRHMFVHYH
Description: Inhibition of MAP3K2 (unknown origin).

A short description of data set [3]: Permeability of compound. Format: ADME. The settings on record: not told; read-out: permeability.
A short description of data set [4]: Thermodynamic solubility of the compound at pH 6.8 using crystalline form of sample. In kind it is physicochemical.
The target in data set [5] is Tyrosine-protein kinase JAK2 (Homo sapiens, UniProt O60674). Description: Inhibition of GST-fused JAK2 (808 to 1132 residues)(unknown origin) using Carboxyfluorescein-Ahx-GGEEEEYFELVKKKK peptide as substrate incubated for 30 mins in presence of ATP by caliper microfluidic mobility shift assay.
Sequence of Tyrosine-protein kinase JAK2 (O60674 whole entry, the tested form may be a part): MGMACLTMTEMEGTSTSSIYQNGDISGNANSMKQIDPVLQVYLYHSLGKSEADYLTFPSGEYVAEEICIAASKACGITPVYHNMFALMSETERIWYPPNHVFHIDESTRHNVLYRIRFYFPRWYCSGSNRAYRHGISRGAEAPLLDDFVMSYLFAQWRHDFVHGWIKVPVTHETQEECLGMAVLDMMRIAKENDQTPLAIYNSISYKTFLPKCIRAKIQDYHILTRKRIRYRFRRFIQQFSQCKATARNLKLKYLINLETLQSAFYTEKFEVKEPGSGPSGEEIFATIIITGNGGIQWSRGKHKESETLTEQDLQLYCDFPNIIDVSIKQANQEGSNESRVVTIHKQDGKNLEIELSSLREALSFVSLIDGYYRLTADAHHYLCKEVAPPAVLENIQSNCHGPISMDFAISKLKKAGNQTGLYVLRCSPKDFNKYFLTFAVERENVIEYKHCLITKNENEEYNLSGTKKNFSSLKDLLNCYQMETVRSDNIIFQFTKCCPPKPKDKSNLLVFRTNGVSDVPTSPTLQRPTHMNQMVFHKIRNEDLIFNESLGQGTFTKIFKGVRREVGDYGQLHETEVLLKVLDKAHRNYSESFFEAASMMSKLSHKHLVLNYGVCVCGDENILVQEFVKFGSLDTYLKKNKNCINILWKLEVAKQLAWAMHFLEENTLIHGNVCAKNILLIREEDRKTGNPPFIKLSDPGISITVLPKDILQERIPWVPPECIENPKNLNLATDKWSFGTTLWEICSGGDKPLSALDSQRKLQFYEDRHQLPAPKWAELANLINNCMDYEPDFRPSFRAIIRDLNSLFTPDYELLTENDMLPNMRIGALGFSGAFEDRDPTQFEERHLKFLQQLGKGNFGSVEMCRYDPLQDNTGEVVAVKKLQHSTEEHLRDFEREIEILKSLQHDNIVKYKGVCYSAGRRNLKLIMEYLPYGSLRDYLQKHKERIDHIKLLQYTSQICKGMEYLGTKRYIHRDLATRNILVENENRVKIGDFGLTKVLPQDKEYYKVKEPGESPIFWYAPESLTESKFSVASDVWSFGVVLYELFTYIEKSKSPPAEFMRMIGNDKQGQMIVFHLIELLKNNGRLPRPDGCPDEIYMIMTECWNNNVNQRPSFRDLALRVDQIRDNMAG
Data set [6] is described as follows: Stability of compound under light stress assessed as compound decomposition under sunlight with intensity of 4000 KJ/m2, irradiation of 250 W/m2, wavelength of >290 nm, temperature of 37 degreeC for 4 hrs using crystalline form of sample. To be noted: read-out: Drug degradation. Format: ADME.
The target of data set [7] is Tyrosine-protein kinase JAK1 (Homo sapiens, UniProt P23458). Description: Inhibition of GST-fused JAK1 (866 to 1154 residues)(unknown origin) using FITC-Ahr-KKSRGDYMTMQIG-NH2 peptide as substrate incubated for 30 mins in presence of ATP by caliper microfluidic mobility shift assay.
Sequence of Tyrosine-protein kinase JAK1 (P23458 whole entry, the tested form may be a part): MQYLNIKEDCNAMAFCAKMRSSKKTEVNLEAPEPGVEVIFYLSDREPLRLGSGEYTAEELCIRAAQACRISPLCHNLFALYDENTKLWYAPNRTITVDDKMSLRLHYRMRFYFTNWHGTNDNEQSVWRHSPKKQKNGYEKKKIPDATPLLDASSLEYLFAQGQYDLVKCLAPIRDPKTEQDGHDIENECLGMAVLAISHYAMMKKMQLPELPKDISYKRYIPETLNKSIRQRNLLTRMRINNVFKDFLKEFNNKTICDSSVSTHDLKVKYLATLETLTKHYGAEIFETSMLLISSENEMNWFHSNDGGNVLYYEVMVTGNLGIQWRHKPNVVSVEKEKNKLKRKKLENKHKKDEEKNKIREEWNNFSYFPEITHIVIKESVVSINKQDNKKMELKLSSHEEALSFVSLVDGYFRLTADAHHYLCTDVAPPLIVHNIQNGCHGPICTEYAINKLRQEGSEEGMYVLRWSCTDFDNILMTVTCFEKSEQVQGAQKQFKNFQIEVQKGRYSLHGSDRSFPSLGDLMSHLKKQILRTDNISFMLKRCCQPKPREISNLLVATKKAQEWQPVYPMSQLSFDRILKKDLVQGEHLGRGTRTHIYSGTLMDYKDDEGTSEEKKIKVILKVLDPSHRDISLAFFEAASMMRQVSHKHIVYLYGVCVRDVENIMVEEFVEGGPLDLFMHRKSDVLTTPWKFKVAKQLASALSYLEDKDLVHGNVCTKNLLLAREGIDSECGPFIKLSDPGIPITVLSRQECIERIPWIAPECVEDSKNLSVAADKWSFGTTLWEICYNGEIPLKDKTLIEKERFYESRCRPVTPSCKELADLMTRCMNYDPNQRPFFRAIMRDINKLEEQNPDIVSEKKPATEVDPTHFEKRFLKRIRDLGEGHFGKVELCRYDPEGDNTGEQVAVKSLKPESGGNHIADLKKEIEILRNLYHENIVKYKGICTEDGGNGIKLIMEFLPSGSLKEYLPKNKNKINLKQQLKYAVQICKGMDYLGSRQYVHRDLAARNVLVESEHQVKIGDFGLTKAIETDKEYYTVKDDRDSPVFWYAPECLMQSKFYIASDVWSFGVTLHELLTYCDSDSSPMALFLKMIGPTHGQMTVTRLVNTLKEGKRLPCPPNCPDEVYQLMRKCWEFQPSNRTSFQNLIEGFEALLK
Data set [8] is described as follows: Stability in human whole blood assessed as half life at 1 uM incubated upto 8 hrs by LC-MS/MS analysis. Format: ADME, tissue-based.
Data set [9] addresses T1, JAK3/JAK1. The data set is described as follows: Inhibition of JAK1/3-mediated STAT5 phosphorylation in human M07E cells preincubated for 30 mins followed by IL-15 stimulation measured after 15 mins by flow cytometry. Format: cell-based.
Data set [10] in a line: Stability of compound under temperature stress assessed as compound degradation at 50 degreeC measured after 7 days using crystalline form of sample. Format: physicochemical. The settings on record: time 7 day; read-out: Drug degradation.
Another data set addresses JAK2/JAK1 (Homo sapiens, UniProt O60674+P23458). Description: Inhibition of JAK1/2-mediated STAT1 phosphorylation in human M07E cells preincubated for 30 mins followed by IFN-alpha stimulation measured after 15 mins by flow cytometry. In kind it is cell-based.
Data set [11] can be described thus: Saturation solubility of compound in PEG400/transcutol/benzyl alcohol/water mixture using crystalline form of sample. In kind it is physicochemical.
Data set [12] in a line: Drug penetration in fresh human skin explant using Franz diffusion cell model assessed as concentration of 2-(6-((5-carbamoyl-4-((2-methoxyphenyl)amino)pyridin-2-yl)amino)pyridin-3-yl)acetic acid metabolite in receiver fluid at 3 % administered topically preincubated overnight followed by fresh media replacement in receiver fluid without compound and subsequently stimulated with IL-4/IL-13 measured after 24 hrs by LC-MS/MS analysis. In kind it is ADME, tissue-based, Skin of body. To be noted: topical_or_ocular.

Data set [13] addresses T3, Tyrosine-protein kinase JAK3 (Homo sapiens, UniProt P52333).
T3 sequence (P52333 whole entry): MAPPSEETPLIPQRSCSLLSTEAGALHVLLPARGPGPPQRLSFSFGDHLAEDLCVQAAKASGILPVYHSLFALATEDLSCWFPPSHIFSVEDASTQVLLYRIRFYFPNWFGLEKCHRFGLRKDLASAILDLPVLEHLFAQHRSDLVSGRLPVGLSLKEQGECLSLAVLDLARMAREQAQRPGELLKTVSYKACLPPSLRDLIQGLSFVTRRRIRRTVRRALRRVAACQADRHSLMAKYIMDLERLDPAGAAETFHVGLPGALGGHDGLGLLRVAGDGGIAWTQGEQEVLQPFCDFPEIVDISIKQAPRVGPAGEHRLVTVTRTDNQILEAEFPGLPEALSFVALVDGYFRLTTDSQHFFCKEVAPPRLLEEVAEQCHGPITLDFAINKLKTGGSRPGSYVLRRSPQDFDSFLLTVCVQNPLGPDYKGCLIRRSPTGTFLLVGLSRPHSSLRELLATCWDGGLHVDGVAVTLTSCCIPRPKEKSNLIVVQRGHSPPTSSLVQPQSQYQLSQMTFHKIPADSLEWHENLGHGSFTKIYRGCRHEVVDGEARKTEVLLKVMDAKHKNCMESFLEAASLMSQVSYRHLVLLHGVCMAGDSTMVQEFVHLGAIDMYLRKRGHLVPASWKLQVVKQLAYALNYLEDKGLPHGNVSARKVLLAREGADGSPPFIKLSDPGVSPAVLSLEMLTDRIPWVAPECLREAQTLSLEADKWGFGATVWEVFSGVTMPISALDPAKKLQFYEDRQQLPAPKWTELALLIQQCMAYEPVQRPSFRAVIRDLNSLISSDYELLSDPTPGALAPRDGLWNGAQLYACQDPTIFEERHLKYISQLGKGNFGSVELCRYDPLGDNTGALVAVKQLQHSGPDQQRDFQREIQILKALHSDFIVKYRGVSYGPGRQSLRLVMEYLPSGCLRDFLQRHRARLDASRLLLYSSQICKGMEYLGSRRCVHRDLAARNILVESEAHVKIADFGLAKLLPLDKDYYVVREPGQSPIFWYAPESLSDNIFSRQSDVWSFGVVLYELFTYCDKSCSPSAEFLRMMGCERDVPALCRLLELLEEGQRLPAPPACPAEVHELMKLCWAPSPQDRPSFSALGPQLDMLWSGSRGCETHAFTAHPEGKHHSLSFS
The data set is described as follows: Inhibition of GST-fused JAK3 (811 to 1124 residues)(unknown origin) using Carboxyfluorescein-Ahx-GGEEEEYFELVKKKK peptide as substrate incubated for 30 mins in presence of ATP by caliper microfluidic mobility shift assay.

Data set [14] can be described thus: Stability in dermis human abdominal skin upto 2.5 % administered topically as ointment treated for 24 hrs followed by removal of ointment and stratum corneum and subsequently stimulated with IL-4/IL-13 measured after 3 hrs. In kind it is ADME, tissue-based, Abdomen skin. To be noted: topical_or_ocular, 27 h, route top.

T1 sequence (P23458 whole entry, one chain of several): as the sequence (P23458 whole entry, the tested form may be a part) above
Sequence of JAK2/JAK1 (P23458 whole entry): as the sequence (P23458 whole entry, the tested form may be a part) above
Sequence of JAK2/JAK1 (O60674 whole entry): as the sequence (O60674 whole entry, the tested form may be a part) above

As for `COC[C@@H](C)OC(=O)Cc1ccc(Nc2cc(Nc3ccccc3OC)c(C(N)=O)cn2)nc1`, the concentration for half-maximal inhibition (IC50) is 14800 nM at JAK3/JAK1 [1]; less than 100 nM in [2]; 5 nM in data set [5]; 5 nM in data set [7]; 131 nM against JAK3/JAK1 [9]; 45 nM against JAK2/JAK1. For the same molecule, the half-maximal inhibitory concentration (IC50) in [13] was 4 nM. Further, in data set [3], the Papp worked out at 18 ×10⁻⁶ cm/s. The Therm_solubility in data set [4] amounted to 0.007 µg/mL. Further, the degraded at 4 h in data set [6] is 0.1%. The half-life at 1 µM in [8] was found to be 6 min. Further, the degraded at 168 h in data set [10] came out at 0.4%. In addition, the solubility (thermodynamic) in data set [11] was greater than 18000 µg/mL. The Drug uptake in [12] was determined as 0.223 µM. Further, in [14], the Stability result was “Stable”.

Source of the values: ChEMBL document CHEMBL5370660, “Design of a Supersoft Topical JAK Inhibitor, Which Is Effective in Human Skin but Rapidly Deactivated in Blood” (J Med Chem, 2023).
